Source: patent US11814444B2, “Cyclic polypeptides for PCSK9 inhibition” (Ra Pharmaceuticals, Inc., priority 2018, dated 2023)
pIC50: −log10 of the molar value. Numbered stars: 1 amine (or outer) side, 2 acyl side, 3 side chain; on linkers, the order of the positions; unused ones are H or OH. Bridge positions count the residues as written; N and C are the ends. Square brackets hold non-standard residues; d marks the D form. Peptide text beside a SMILES is read from it. Trp(7-aza) = N[C@@H](Cc1c[nH]c2ncccc12)C(=O)O; X1 = C[C@@](N[*:1])(C(=O)[*:2])c1ccccc1; mXylylene = c1cc(C[*:1])cc(C[*:2])c1; Tle = CC(C)(C)[C@H](N)C(=O)O; αMeV = CC(C)[C@](C)(N)C(=O)O; Thp = NC1(C(=O)O)CCOCC1

Columns and labels:
Type in all cases: binding
[1] = target: human PCSK9 / human LDLR EGFa domain interaction (Homo sapiens, UniProt Q8NBP7); assay: TR-FRET assay of inhibition of the PCSK9-LDLR protein-protein interaction; settings: 20 nM avitag-biotinylated human PCSK9, 20 nM his-tagged human LDLR EGFa domain, 2 hours, room temperature
human PCSK9 / human LDLR EGFa domain interaction, sequence (Q8NBP7 153-692): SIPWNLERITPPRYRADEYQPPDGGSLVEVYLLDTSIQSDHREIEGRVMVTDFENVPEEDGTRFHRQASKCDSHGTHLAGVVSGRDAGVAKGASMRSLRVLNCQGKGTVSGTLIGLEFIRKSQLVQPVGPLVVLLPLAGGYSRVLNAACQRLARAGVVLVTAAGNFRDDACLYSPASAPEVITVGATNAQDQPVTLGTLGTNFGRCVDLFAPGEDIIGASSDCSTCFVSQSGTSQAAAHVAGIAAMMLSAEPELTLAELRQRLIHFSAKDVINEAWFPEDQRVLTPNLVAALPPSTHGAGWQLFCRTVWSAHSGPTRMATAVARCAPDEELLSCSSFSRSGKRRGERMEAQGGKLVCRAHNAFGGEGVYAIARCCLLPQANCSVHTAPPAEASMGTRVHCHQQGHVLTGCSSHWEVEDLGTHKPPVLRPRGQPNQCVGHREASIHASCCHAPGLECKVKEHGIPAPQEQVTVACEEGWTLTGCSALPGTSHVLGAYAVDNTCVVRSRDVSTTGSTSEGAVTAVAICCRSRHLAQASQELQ
human PCSK9 / human LDLR EGFa domain interaction, sequence (Q8NBP7 31-152 partner limits assumed): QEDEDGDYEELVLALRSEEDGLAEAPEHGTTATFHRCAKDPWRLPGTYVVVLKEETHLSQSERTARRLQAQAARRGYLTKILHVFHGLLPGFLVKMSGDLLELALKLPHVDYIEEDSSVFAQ
Outline: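 Half-maximal inhibitory concentrations came from 4-parameter fits of dose-response data. Proteins: biotinylated PCSK9, His-tagged LDLR EGFa, 20 nM each; labels 5 nM; 2 h, room temperature; buffer 50 mM HEPES, 150 mM NaCl, 5 mM CaCl2.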

PCSK9 [2] = target: T1, PCSK9 (Homo sapiens, UniProt Q8NBP7); assay: PCSK9 Alexa FRET Standard assay (displacement of AlexaFluor647 tagged cyclic peptide Reagent A); settings: 0.5 nM PCSK9, 20 nM AF cyclic peptide Reagent A
T1 sequence (Q8NBP7 153-692): as the sequence (Q8NBP7 153-692) above
Outline: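 TR-FRET displacement: 0.5 nM biotinylated PCSK9 with 1.25 nM Strep-Eu and 20 nM AlexaFluor-tagged cyclic peptide (final) in 50 mM HEPES pH 7.4, 0.15 M NaCl, 5 mM CaCl2, 0.01% BSA, 0.01% P20, ≥2 h at room temperature. IC50 from sigmoidal fit, converted to Ki via peptide KD; falling Eu counts flagged false positives.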

PCSK9 [3] = target: T1, PCSK9; assay: PCSK9 Alexa FRET Plus assay (displacement of AlexaFluor647 tagged cyclic peptide Reagent B); settings: 0.5 nM PCSK9, 960 nM AF cyclic peptide Reagent B
Protocol: A solution containing 1 nM biotinylated PCSK9+2.5 nM Lance Streptavidin Europium (Strep-Eu) was made in 50 mM HEPES pH 7.4, 0.15 M NaCl, 5 mM CaCl2), 0.01% BSA, and 0.01% Surfactant P20. A separate solution containing 1920 nM of the AlexaFluor tagged cyclic peptide was made in the same buffer system. An Echo was used to transfer 0.075 ul of compound plus 0.675 ul of DMSO to each well of an assay plate followed by the addition of 15 ul of PCSK9+Stept-Eu and 15 ul of AF peptide. The final assay volume was 30.750 ul containing 0.5 nM PCSK9, 1.25 nM Strep-Eu, and 960 nM AF cyclic peptide. The reaction was incubated at room temperature for at least two hours prior to fluorescence measurements using an Envision Multilabel Reader. IC50 values were determined by fitting data to a sigmoidal dose-response curve using nonlinear regression. Ki was then calculated from the IC50 and the KD of AF cyclic peptide. Counts (B-counts) of the europium-labeled PCSK9 were followed to observe if compounds were adversely affecting PCSK9. A fall off of the B-counts likely indicated a false positive of inhibition. Data from this procedure was reported as “P=‘numerical value’ (nanomolar)”

| Structure (SMILES) | pIC50 [1] | pIC50 (PCSK9 [2]) | pIC50 (PCSK9 [3]) |
| --- | --- | --- | --- |
| CC(=O)N[C@H]1CSCc2cccc(c2)CSC[C@H](C(N)=O)NC(=O)[C@H]([C@@H](C)O)NC(=O)[C@](C)(C(C)C)NC(=O)[C@H](Cc2ccc(O)cc2)NC(=O)[C@H](C)NC(=O)C2(CCOCC2)NC(=O)[C@H](Cc2c[nH]c3ncccc23)NC(=O)[C@H]([C@@H](C)O)NC(=O)[C@@H]2CCCN2C(=O)[C@H](Cc2ccc(O)cc2)NC(=O)[C@H](C(C)(C)C)NC1=O [Compound 187] (Ac-C[Tle]YPT[Trp(7-aza)][Thp]AY[αMeV]T[dC]-NH2; linker 1-12 via mXylylene) | 7.00 to 9.00 | 7.00 to 9.00 | 7.00 to 9.00 |
| CC(=O)N[C@H]1CSCc2cccc(c2)CSC[C@H](C(N)=O)NC(=O)[C@H]([C@@H](C)O)NC(=O)[C@](C)(C(C)C)NC(=O)[C@H](Cc2ccc(O)cc2)NC(=O)[C@H](C)NC(=O)[C@](C)(c2ccccc2)NC(=O)[C@H](Cc2c[nH]c3ncccc23)NC(=O)[C@H]([C@@H](C)O)NC(=O)[C@@H]2CCCN2C(=O)[C@H](Cc2ccc(O)cc2)NC(=O)[C@H](C(C)(C)C)NC1=O [Compound 190] (Ac-C[Tle]YPT[Trp(7-aza)][X1]AY[αMeV]T[dC]-NH2; linker 1-12 via mXylylene) | 4.30 to 4.68 | 4.68 to 6.00 | 5.70 to 6.60 |
